Assay results from US20100267561A1, “HERBICIDAL PYRIDAZINONE DERIVATIVES” (priority 2007, published 2010).

How the values were obtained:
Test in all cases: Test B pre-/postemergence plant response
Assay type in all cases: in vivo
[1] = test system: lambsquarters (Chenopodium album)
How it was run: (§1)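 Visual scoring from 0 (no effect) to 100 (complete control) against untreated controls was done 13 to 15 days after greenhouse treatment. Chemicals were formulated in a surfactant-containing non-phytotoxic solvent and applied to soil preemergence or to 1- to 4-leaf (2-18 cm) plants postemergence.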

[2] = test system: Italian ryegrass (Lolium multiflorum)
How it was run: as §1

kochia (Kochia scoparia) = test system: kochia (Kochia scoparia)
How it was run: as §1

[3] = test system: eastern black (E.B.) nightshade (Solanum ptycanthum); details: Preemergence; for Nightshade, E. B. plant response rating: scale 0 to 100
How it was run: as §1

[4] = test system: johnsongrass (Sorghum halepense)
How it was run: as §1

wild oat (Avena fatua) = test system: wild oat (Avena fatua)
How it was run: as §1

[5] = test system: morningglory (Ipomoea coccinea)
How it was run: as §1

[6] = test system: giant foxtail (Setaria faberii)
How it was run: as §1

[7] = test system: bermudagrass (Cynodon dactylon); details: for Bermudagrass plant response rating: 8 g ai/ha
How it was run: as §1

[8] = test system: common ragweed (Ambrosia elation)
How it was run: as §1

[9] = test system: surinam grass (Brachiaria decumbens)
How it was run: as §1

[10] = test system: blackgrass (Alopecurus myosuroides); details: for Blackgrass plant response rating: 8 g ai/ha
How it was run: as §1

corn (Zea mays) = test system: corn (Zea mays)
How it was run: as §1

[11] = test system: yellow nutsedge (Cyperus esculentus)
How it was run: as §1

[12] = 8 g ai/ha, postemergence, 0-100 scale
[13] = Postemergence, 16 g ai/ha, scale 0 to 100
[14] = Postemergence, 31 g ai/ha, scale 0 to 100
[15] = Postemergence, 62 g ai/ha, scale 0 to 100, 0 no effect, 100 complete control
[16] = Preemergence, 31 g ai/ha, scale 0 to 100 (0 no effect, 100 complete control)
[17] = Preemergence, 62 g ai/ha, 0 to 100 scale, 0 no effect, 100 complete control
[18] = Preemergence, 8 g ai/ha, scale 0 to 100
[19] = Preemergence, 16 g ai/ha, scale 0 to 100
[20] = Preemergence, 16 g ai/ha, scale 0 to 100 (0 no effect, 100 complete control)

CCCC(=O)Oc1cnn(C)c(=O)c1-n1nc(-c2ccc(Cl)cc2)cc1C [Compound 56]
Lambsquarters plant response rating [1, 12]: 0
Plant response rating, Lambsquarters [1, 13]: 0
Plant response rating, Lambsquarters [1, 14]: 0
Plant response rating, Lambsquarters [1, 15]: 0
Plant response rating, Lambsquarters [1, 16]: 0
Plant response rating, Lambsquarters [1, 17]: 20
Lambsquarters plant response rating [1, 18]: 0
Lambsquarters plant response rating [1, 19]: 0
Ryegrass, Italian plant response rating [2, 12]: 0
Plant response rating, Ryegrass, Italian [2, 13]: 40
Plant response rating, Ryegrass, Italian [2, 14]: 60
Plant response rating, Ryegrass, Italian [2, 15]: 65
Plant response rating, Ryegrass, Italian [2, 16]: 98
Plant response rating, Ryegrass, Italian [2, 17]: 100
Ryegrass, Italian plant response rating [2, 18]: 60
Ryegrass, Italian plant response rating [2, 19]: 98
Kochia plant response rating (kochia (Kochia scoparia); [12]): 0
Plant response rating, Kochia (kochia (Kochia scoparia); [13]): 0
Plant response rating, Kochia (kochia (Kochia scoparia); [14]): 0
Plant response rating, Kochia (kochia (Kochia scoparia); [15]): 0
Plant response rating, Kochia (kochia (Kochia scoparia); [16]): 98
Plant response rating, Kochia (kochia (Kochia scoparia); [17]): 100
Kochia plant response rating (kochia (Kochia scoparia); [18]): 0
Kochia plant response rating (kochia (Kochia scoparia); [19]): 20
Plant response rating, Nightshade, E. B. ([3]; 31 g ai/ha, scale 0 to 100 (0 no effect, 100 complete control)): 0
Plant response rating, Nightshade, E. B. ([3]; 62 g ai/ha, 0 to 100 scale, 0 no effect, 100 complete control): 20
Nightshade, E. B. plant response rating ([3]; 8 g ai/ha): 0
Nightshade, E. B. plant response rating ([3]; 16 g ai/ha): 0
Johnsongrass plant response rating [4, 12]: 0
Plant response rating, Johnsongrass [4, 13]: 65
Plant response rating, Johnsongrass [4, 14]: 85
Plant response rating, Johnsongrass [4, 15]: 100
Plant response rating, Johnsongrass [4, 16]: 70
Plant response rating, Johnsongrass [4, 17]: 100
Johnsongrass plant response rating [4, 18]: 60
Johnsongrass plant response rating [4, 19]: 65
Oat, Wild plant response rating (wild oat (Avena fatua); [12]): 5
Plant response rating, Oat, Wild (wild oat (Avena fatua); [13]): 85
Plant response rating, Oat, Wild (wild oat (Avena fatua); [14]): 90
Plant response rating, Oat, Wild (wild oat (Avena fatua); [15]): 90
Plant response rating, Oat, Wild (wild oat (Avena fatua); [16]): 60
Plant response rating, Oat, Wild (wild oat (Avena fatua); [17]): 90
Oat, Wild plant response rating (wild oat (Avena fatua); [18]): 0
Oat, Wild plant response rating (wild oat (Avena fatua); [19]): 50
Morningglory plant response rating [5, 12]: 0
Plant response rating, Morningglory [5, 13]: 0
Plant response rating, Morningglory [5, 14]: 0
Plant response rating, Morningglory [5, 15]: 0
Plant response rating, Morningglory [5, 16]: 0
Plant response rating, Morningglory [5, 17]: 0
Morningglory plant response rating [5, 18]: 0
Morningglory plant response rating [5, 19]: 0
Foxtail, Giant plant response rating [6, 12]: 75
Plant response rating, Foxtail, Giant [6, 13]: 98
Plant response rating, Foxtail, Giant [6, 14]: 98
Plant response rating, Foxtail, Giant [6, 15]: 100
Plant response rating, Foxtail, Giant [6, 16]: 100
Plant response rating, Foxtail, Giant [6, 17]: 100
Foxtail, Giant plant response rating [6, 18]: 95
Foxtail, Giant plant response rating [6, 19]: 100
Bermudagrass plant response rating ([7]; postemergence, 0-100 scale): 65
Plant response rating, Bermudagrass [7, 13]: 70
Plant response rating, Bermudagrass [7, 14]: 95
Plant response rating, Bermudagrass [7, 15]: 100
Bermudagrass plant response rating ([7]; Preemergence, scale 0 to 100 (0 no effect, 100 complete control)): 85
Plant response rating, Bermudagrass [7, 20]: 100
Plant response rating, Bermudagrass [7, 16]: 100
Plant response rating, Bermudagrass [7, 17]: 100
Ragweed plant response rating [8, 12]: 0
Plant response rating, Ragweed [8, 13]: 0
Plant response rating, Ragweed [8, 14]: 0
Plant response rating, Ragweed [8, 15]: 0
Plant response rating, Ragweed [8, 16]: 0
Plant response rating, Ragweed [8, 17]: 0
Ragweed plant response rating [8, 18]: 0
Ragweed plant response rating [8, 19]: 0
Surinam Grass plant response rating [9, 12]: 70
Plant response rating, Surinam Grass [9, 13]: 75
Plant response rating, Surinam Grass [9, 14]: 98
Plant response rating, Surinam Grass [9, 15]: 100
Plant response rating, Surinam Grass [9, 16]: 100
Plant response rating, Surinam Grass [9, 17]: 100
Surinam Grass plant response rating [9, 18]: 75
Surinam Grass plant response rating [9, 19]: 90
Blackgrass plant response rating ([10]; postemergence, 0-100 scale): 0
Plant response rating, Blackgrass [10, 13]: 65
Plant response rating, Blackgrass [10, 14]: 95
Plant response rating, Blackgrass [10, 15]: 98
Plant response rating, Blackgrass [10, 20]: 60
Plant response rating, Blackgrass [10, 16]: 98
Plant response rating, Blackgrass [10, 17]: 98
Blackgrass plant response rating ([10]; Preemergence, scale 0 to 100): 40
Corn plant response rating (corn (Zea mays); [12]): 75
Plant response rating, Corn (corn (Zea mays); [13]): 85
Plant response rating, Corn (corn (Zea mays); [14]): 95
Plant response rating, Corn (corn (Zea mays); [15]): 95
Plant response rating, Corn (corn (Zea mays); [16]): 95
Plant response rating, Corn (corn (Zea mays); [17]): 95
Corn plant response rating (corn (Zea mays); [18]): 0
Corn plant response rating (corn (Zea mays); [19]): 10
Nutsedge, Yellow plant response rating [11, 12]: 0
Plant response rating, Nutsedge, Yellow [11, 13]: 0
Plant response rating, Nutsedge, Yellow [11, 14]: 0
Plant response rating, Nutsedge, Yellow [11, 15]: 0
Plant response rating, Nutsedge, Yellow [11, 16]: 0
Plant response rating, Nutsedge, Yellow [11, 17]: 0
Nutsedge, Yellow plant response rating [11, 18]: 0
Nutsedge, Yellow plant response rating [11, 19]: 0
